In US7582681B2, “Synergistic mixtures of 1,2-alkane diols” (Symrise GmbH & Co. KG, priority 2002, dated 2009):

Legend:
Assay in all cases: Test for adequate preservation (European Pharmacopea), 1,2-diols and 1,2-diol mixtures in O/W emulsion
Format in all cases: cell-based
[1] = tested on: Escherichia coli ATCC 8739; conditions: 3% diol(s) in O/W emulsion
Protocol: (§1) A test for adequate preservation was carried out in accordance with the European Pharmacopea. The test thus consists of the contamination of the formulation, if possible in its final ratio, with a prescribed inoculum of suitable microorganisms, storage of the inoculated formulation at a specific temperature, taking of samples from the vessel at specific intervals and determination of the number of microorganisms in the samples taken in this way. The preserving properties are adequate if, under the conditions of the test, there is a distinct reduction or optionally no increase in the germ count in the inoculated formulations after the prescribed times at the prescribed temperatures. Experimental details of the test procedure are described in the European Pharmacopea (ISBN 3-7692-2768-9; 2001 supplement to the 3rd Edition, page 421-422, chapter 5.1.3). The initial germ count (CFU/g; “0” value) was in the range of 240,000 to 300,000 in the various test series. For the tests for adequate preservation, (a) potentially synergistically active mixtures taken into account and (b), for comparison purposes, the corresponding unmixed 1,2-diols were incorporated in O/W emulsions. […] The variation in the total concentration of 1,2-diols or 1,2-diol mixtures in the O/W emulsions was compensated for by increasing or reducing the water content, so that otherwise identical formulations always comprised 100 parts by weight in total.

[2] = tested on: Staphylococcus aureus ATCC 6538; conditions: 3% diol(s) in O/W emulsion
Protocol: as §1

[3] = tested on: Pseudomonas aeruginosa ATCC 9027; conditions: 3% diol(s) in O/W emulsion
Protocol: as §1

[4] = tested on: Candida albicans ATCC 10231; conditions: 3% diol(s) in O/W emulsion
Protocol: as §1

[5] = tested on: Aspergillus niger ATCC 16404; conditions: for germ count A. niger: 3% diol(s) in O/W emulsion; for reduction in the number of colony forming units (CFU) to the 0 value: Aspergillus niger, dosage of 3%, 28 days
Protocol: A test for adequate preservation was carried out in accordance with the European Pharmacopea. The test thus consists of the contamination of the formulation, if possible in its final ratio, with a prescribed inoculum of suitable microorganisms, storage of the inoculated formulation at a specific temperature, taking of samples from the vessel at specific intervals and determination of the number of microorganisms in the samples taken in this way. The preserving properties are adequate if, under the conditions of the test, there is a distinct reduction or optionally no increase in the germ count in the inoculated formulations after the prescribed times at the prescribed temperatures. Experimental details of the test procedure are described in the European Pharmacopea (ISBN 3-7692-2768-9; 2001 supplement to the 3rd Edition, page 421-422, chapter 5.1.3). The initial germ count (CFU/g; “0” value) was in the range of 240,000 to 300,000 in the various test series. For the tests for adequate preservation, (a) potentially synergistically active mixtures taken into account and (b), for comparison purposes, the corresponding unmixed 1,2-diols were incorporated in O/W emulsions. […] The variation in the total concentration of 1,2-diols or 1,2-diol mixtures in the O/W emulsions was compensated for by increasing or reducing the water content, so that otherwise identical formulations always comprised 100 parts by weight in total. […] The Kull equation enables the pure substances and the active compound mixtures prepared therefrom to be compared in respect of their antimicrobial activity. With this equation the so-called synergy index (SI), which is a measure for a synergistic activity, but also for a possible antagonistic activity, of a mixture having an antimicrobial action, is determined. A synergistic effect is evident if the SI value determined is less than 1. On the other hand, if an SI of precisely 1 is calculated, there is a pure additive effect of two substances having an antimicrobial action. In the case of an SI value greater than 1, on the other hand, there is a (frequently undesired) antagonistic effect.

Structure (SMILES) | germ count E. coli ([1]; 0′-count (initial germ count)) | germ count E. coli ([1]; 24 h) [CFU/ml] | germ count E. coli ([1]; 48 h) [CFU/ml] | germ count E. coli ([1]; 4 d) [CFU/ml] | germ count E. coli ([1]; 7 d) [CFU/ml] | germ count E. coli ([1]; 14 d) [CFU/ml] | germ count E. coli ([1]; 28 d) [CFU/ml] | germ count Staph. aureus ([2]; 0′-count (initial germ count)) | germ count Staph. aureus ([2]; 24 h) [CFU/ml] | germ count Staph. aureus ([2]; 48 h) [CFU/ml] | germ count Staph. aureus ([2]; 7 d) [CFU/ml] | germ count Staph. aureus ([2]; 14 d) [CFU/ml] | germ count Staph. aureus ([2]; 28 d) [CFU/ml] | germ count Ps. aeruginosa ([3]; 0′-count (initial germ count)) | germ count Ps. aeruginosa ([3]; 24 h) [CFU/ml] | germ count Ps. aeruginosa ([3]; 48 h) [CFU/ml] | germ count Ps. aeruginosa ([3]; 4 d) [CFU/ml] | germ count Ps. aeruginosa ([3]; 7 d) [CFU/ml] | germ count Ps. aeruginosa ([3]; 14 d) [CFU/ml] | germ count Ps. aeruginosa ([3]; 28 d) [CFU/ml] | other results
CCCCC(O)CO (stereo not drawn) [HE3, 1,2-hexanediol] | 300,000 CFU/ml | <100 | <100 | 0 | 0 | 0 | 0 | 240,000 CFU/ml | <100 | <100 | 0 | 0 | 0 | 290,000 CFU/ml | <100 | <100 | 0 | 0 | 0 | 0 | germ count C. albicans ([4]; 0′-count (initial germ count)): 250,000 CFU/ml; germ count C. albicans ([4]; 24 h): 120,000 CFU/ml; germ count C. albicans ([4]; 48 h): 5,600 CFU/ml; germ count C. albicans ([4]; 4 d): 0 CFU/ml; germ count C. albicans ([4]; 7 d): 0 CFU/ml; germ count C. albicans ([4]; 14 d): 0 CFU/ml; germ count C. albicans ([4]; 28 d): 0 CFU/ml; germ count A. niger ([5]; 0′-count (initial germ count)): 260,000 CFU/ml; germ count A. niger ([5]; 24 h): 120,000 CFU/ml; germ count A. niger ([5]; 48 h): 120,000 CFU/ml; germ count A. niger ([5]; 4 d): 120,000 CFU/ml; germ count A. niger ([5]; 7 d): 80,000 CFU/ml; germ count A. niger ([5]; 14 d): 28,000 CFU/ml; germ count A. niger ([5]; 14 d, listed as 1,2-hexanediol): 28000 CFU/ml; germ count A. niger ([5]; 28 d): 800 CFU/ml; reduction in the number of colony forming units (CFU) to the 0 value [5]: did not enable a reduction in the number of colony forming units (CFU) to the desired 0 value
CCCCCCC(O)CO (stereo not drawn) [OC3, 1,2-octanediol] | 300,000 CFU/ml | 0 | 0 | 0 | 0 | 0 | 0 | 240,000 CFU/ml | 0 | 0 | 0 | 0 | 0 | 290,000 CFU/ml | 0 | 0 | 0 | 0 | 0 | 0 | germ count C. albicans ([4]; 0′-count (initial germ count)): 250,000 CFU/ml; germ count C. albicans ([4]; 24 h): 3,200 CFU/ml; germ count C. albicans ([4]; 48 h): <100 CFU/ml; germ count C. albicans ([4]; 4 d): 0 CFU/ml; germ count C. albicans ([4]; 7 d): 0 CFU/ml; germ count C. albicans ([4]; 14 d): 0 CFU/ml; germ count C. albicans ([4]; 28 d): 0 CFU/ml; germ count A. niger ([5]; 0′-count (initial germ count)): 260,000 CFU/ml; germ count A. niger ([5]; 24 h): 55,000 CFU/ml; germ count A. niger ([5]; 48 h): 6,000 CFU/ml; germ count A. niger ([5]; 4 d): 6,000 CFU/ml; germ count A. niger ([5]; 7 d): 1,100 CFU/ml; germ count A. niger ([5]; 14 d): 1,000 CFU/ml; germ count A. niger ([5]; 14 d, listed as 1,2-octanediol): 1000 CFU/ml; germ count A. niger ([5]; 28 d): 100 CFU/ml; reduction in the number of colony forming units (CFU) to the 0 value [5]: did not enable a reduction in the number of colony forming units (CFU) to the desired 0 value
